PubChem BioAssay AID328 (DTP/NCI, 2004)
Values joined by “and” are separate entries in the source; they are usually repeats but may differ in a detail not shown here. Equal values may be shown once. Toxic doses and inconclusive results are not listed.

Tested on: BDF1 mice, P388 leukemia ip, median survival T/C
Experiment: NCI In Vivo Anticancer Drug Screen. Data for tumor model P388 Leukemia (intraperitoneal) in B6D2F1 (BDF1) mice
Details: endpoint: median survival time, higher = longer survival
How it was run: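 Reported as T/C, where T is the survival measurement in dosed animals and C the same measurement in vehicle controls.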

SMILES: COc1cccc2c1C(=O)c1c(O)c3c(c(O)c1C2=O)C[C@@](O)(C(=O)CO)C[C@@H]3OC1CC(N)C(O)C(C)O1 (some centres undefined)
- T/C (dose: 0.25 mg/kg/injection, schedule: Q03HX024 (ip), vehicle: saline): 230 % of control
- T/C (dose: 0.37 mg/kg/injection, schedule: Q03HX024 (ip), vehicle: saline): 285 % of control
- T/C (dose: 0.39 mg/kg/injection, schedule: Q01DX009 (ip), vehicle: water): 152 % of control
- T/C (dose: 0.5 mg/kg/injection, schedule: Q01DX009 (ip), vehicle: saline): 250 % of control
- T/C (dose: 0.5 mg/kg/injection, schedule: Q03HX024 (ip), vehicle: saline): 250 % of control
- T/C (dose: 0.75 mg/kg/injection, schedule: Q03HX024 (ip), vehicle: saline): 240 % of control
- T/C (dose: 0.8 mg/kg/injection, schedule: Q01DX004 (ip), vehicle: saline): 270 % of control
- T/C (dose: 0.9 mg/kg/injection, schedule: Q01DX009 (ip), vehicle: clinical formulation): 263 % of control
- T/C (dose: 1.0 mg/kg/injection, schedule: Q01DX001 (ip), vehicle: saline): 153 % of control
- T/C (dose: 1.0 mg/kg/injection, schedule: Q01DX004 (ip), vehicle: saline): 536 % of control
- T/C (dose: 1.0 mg/kg/injection, schedule: Q01DX009 (ip), vehicle: saline): 285 % of control
- T/C (dose: 1.0 mg/kg/injection, schedule: Q03HX008 (ip), vehicle: water): 250 % of control
- T/C (dose: 1.0 mg/kg/injection, schedule: Q03HX016 (ip), vehicle: saline): 290 % of control
- T/C (dose: 1.0 mg/kg/injection, schedule: Q04DX003 (ip), vehicle: saline): 106 % of control
- T/C (dose: 1.0 mg/kg/injection, schedule: Q04DX009 (ip), vehicle: water): 117 % of control
- T/C (dose: 1.2 mg/kg/injection, schedule: Q01DX009 (ip), vehicle: saline): 304 % of control
- T/C (dose: 1.2 mg/kg/injection, schedule: Q03HX008 (ip), vehicle: saline): 539 % of control
- T/C (dose: 1.3 mg/kg/injection, schedule: Q01DX009 (ip), vehicle: clinical formulation): 473 % of control
- T/C (dose: 1.5 mg/kg/injection, schedule: Q01DX009 (ip), vehicle: saline): 361 % of control
- T/C (dose: 1.5 mg/kg/injection, schedule: Q03HX024 (sc), vehicle: saline): 95 % of control
- T/C (dose: 1.56 mg/kg/injection, schedule: Q01DX009 (ip), vehicle: water): 224 % of control
- T/C (dose: 1.6 mg/kg/injection, schedule: Q01DX004 (ip), vehicle: saline): 423 % of control
- T/C (dose: 1.73 mg/kg/injection, schedule: Q04DX003 (ip), vehicle: water): 256 % of control
- T/C (dose: 1.8 mg/kg/injection, schedule: Q01DX009 (ip), vehicle: saline): 295 % of control and 306 % of control
- T/C (dose: 1.8 mg/kg/injection, schedule: Q03HX008 (ip), vehicle: saline): 539 % of control
- T/C (dose: 1.8 mg/kg/injection, schedule: Q04DX003 (ip), vehicle: saline): 122 % of control
- T/C (dose: 1.8 mg/kg/injection, schedule: Q## X003 (ip), vehicle: saline): 122 % of control
- T/C (dose: 2.0 mg/kg/injection, schedule: Q01DX009 (ip), vehicle: clinical formulation): 247 % of control
- T/C (dose: 2.0 mg/kg/injection, schedule: Q01DX009 (ip), vehicle: saline): 238 % of control and 250 % of control
- T/C (dose: 2.0 mg/kg/injection, schedule: Q03HX008 (ip), vehicle: water): 254 % of control
- T/C (dose: 2.0 mg/kg/injection, schedule: Q04DX003 (ip), vehicle: saline): 122 % of control
- T/C (dose: 2.0 mg/kg/injection, schedule: Q06HX004 (ip), vehicle: water): 300 % of control
- T/C (dose: 2.16 mg/kg/injection, schedule: Q04DX003 (ip), vehicle: water): 247 % of control
- T/C (dose: 2.5 mg/kg/injection, schedule: Q01DX009 (ip), vehicle: saline): 119 % of control
- T/C (dose: 2.5 mg/kg/injection, schedule: Q01DX009 (sc), vehicle: saline): 115 % of control
- T/C (dose: 2.5 mg/kg/injection, schedule: Q04DX003 (ip), vehicle: water): 237 % of control
- T/C (dose: 2.7 mg/kg/injection, schedule: Q01DX009 (ip), vehicle: saline): 124 % of control
- T/C (dose: 2.7 mg/kg/injection, schedule: Q03HX008 (ip), vehicle: saline): 92 % of control
- T/C (dose: 2.7 mg/kg/injection, schedule: Q04DX003 (ip), vehicle: saline): 122 % of control
- T/C (dose: 2.7 mg/kg/injection, schedule: Q## X003 (ip), vehicle: saline): 122 % of control
- T/C (dose: 2.88 mg/kg/injection, schedule: Q04DX003 (ip), vehicle: water): 241 % of control
- T/C (dose: 3.0 mg/kg/injection, schedule: Q01DX009 (ip), vehicle: clinical formulation): 473 % of control
- T/C (dose: 3.0 mg/kg/injection, schedule: Q01DX009 (ip), vehicle: saline): 104 % of control
- T/C (dose: 3.0 mg/kg/injection, schedule: Q01DX009 (sc), vehicle: saline): 100 % of control
- T/C (dose: 3.0 mg/kg/injection, schedule: Q03HX008 (ip), vehicle: water): 243 % of control
- T/C (dose: 3.0 mg/kg/injection, schedule: Q04DX004 (ip), vehicle: saline): 112 % of control
- T/C (dose: 3.5 mg/kg/injection, schedule: Q01DX009 (ip), vehicle: saline): 90 % of control
- T/C (dose: 3.5 mg/kg/injection, schedule: Q01DX009 (sc), vehicle: saline): 100 % of control
- T/C (dose: 3.6 mg/kg/injection, schedule: Q01DX004 (ip), vehicle: saline with Tween-80): 123 % of control
- T/C (dose: 3.6 mg/kg/injection, schedule: Q04DX003 (ip), vehicle: saline + alcohol): 232 % of control
- T/C (dose: 3.6 mg/kg/injection, schedule: Q04DX003 (ip), vehicle: water): 240 % of control and 259 % of control
- T/C (dose: 4.0 mg/kg/injection, schedule: Q03HX008 (ip), vehicle: saline): 541 % of control
- T/C (dose: 4.0 mg/kg/injection, schedule: Q04DX003 (sc), vehicle: saline): 150 % of control
- T/C (dose: 4.0 mg/kg/injection, schedule: Q06HX004 (ip), vehicle: water): 545 % of control
- T/C (dose: 4.4 mg/kg/injection, schedule: Q01DX001 (ip), vehicle: saline): 150 % of control
- T/C (dose: 4.5 mg/kg/injection, schedule: Q01DX009 (ip), vehicle: clinical formulation): 100 % of control
- T/C (dose: 4.5 mg/kg/injection, schedule: Q04DX003 (ip), vehicle: saline): 539 % of control and 571 % of control
- T/C (dose: 4.8 mg/kg/injection, schedule: Q04DX003 (ip), vehicle: water): 224 % of control and 247 % of control
- T/C (dose: 5.0 mg/kg/injection, schedule: Q01DX001 (ip), vehicle: saline): 252 % of control
- T/C (dose: 5.0 mg/kg/injection, schedule: Q03HX008 (ip), vehicle: water): 89 % of control
- T/C (dose: 5.0 mg/kg/injection, schedule: Q07DX006 (ip), vehicle: saline): 245 % of control
- T/C (dose: 5.5 mg/kg/injection, schedule: Q04DX003 (ip), vehicle: saline): 571 % of control
- T/C (dose: 5.5 mg/kg/injection, schedule: Q04DX003 (sc), vehicle: saline): 150 % of control
- T/C (dose: 6.0 mg/kg/injection, schedule: Q01DX001 (ip), vehicle: saline): 516 % of control
- T/C (dose: 6.0 mg/kg/injection, schedule: Q04DX003 (ip), vehicle: saline + alcohol): 270 % of control
- T/C (dose: 6.0 mg/kg/injection, schedule: Q04DX003 (ip), vehicle: saline): 225 % of control and 153 % of control
- T/C (dose: 6.0 mg/kg/injection, schedule: Q04DX003 (ip), vehicle: water): 250 % of control and 106 % of control and 123 % of control
- T/C (dose: 6.0 mg/kg/injection, schedule: Q## X003 (ip), vehicle: saline): 153 % of control
- T/C (dose: 6.6 mg/kg/injection, schedule: Q01DX001 (iv), vehicle: saline): 109 % of control
- T/C (dose: 6.67 mg/kg/injection, schedule: Q04DX003 (ip), vehicle: saline): 271 % of control
- T/C (dose: 7.5 mg/kg/injection, schedule: Q01DX001 (ip), vehicle: saline): 295 % of control
- T/C (dose: 7.5 mg/kg/injection, schedule: Q01DX001 (sc), vehicle: saline): 150 % of control
- T/C (dose: 7.5 mg/kg/injection, schedule: Q07DX006 (ip), vehicle: saline): 409 % of control
- T/C (dose: 8.0 mg/kg/injection, schedule: Q04DX009 (ip), vehicle: water): 150 % of control
- T/C (dose: 8.4 mg/kg/injection, schedule: Q03HX008 (ip), vehicle: water): 83 % of control
- T/C (dose: 10.0 mg/kg/injection, schedule: Q01DX001 (ip), vehicle: water): 268 % of control
- T/C (dose: 10.0 mg/kg/injection, schedule: Q01DX001 (iv), vehicle: saline): 117 % of control
- T/C (dose: 10.0 mg/kg/injection, schedule: Q07DX006 (ip), vehicle: saline): 313 % of control
- T/C (dose: 12.0 mg/kg/injection, schedule: Q01DX001 (ip), vehicle: saline): 486 % of control and 516 % of control (2×)
- T/C (dose: 15.0 mg/kg/injection, schedule: Q01DX001 (iv), vehicle: saline): 235 % of control and 312 % of control
- T/C (dose: 16.0 mg/kg/injection, schedule: Q04DX009 (ip), vehicle: water): 108 % of control
- T/C (dose: 16.7 mg/kg/injection, schedule: Q01DX001 (ip), vehicle: water): 112 % of control
- T/C (dose: 20.0 mg/kg/injection, schedule: Q01DX001 (ip), vehicle: saline): 104 % of control
- T/C (dose: 20.0 mg/kg/injection, schedule: Q01DX001 (ip), vehicle: water): 79 % of control
